According to patent publication US20250207175A1, “METHOD FOR DETECTING CONTAMINATING CARBOXYLESTERASE ACTIVITY” (Boehringer Ingelheim International GmbH, priority 2022, published 2025):
Entries after “also recorded” stand apart in the source; their conditions may differ.

Columns and labels:
[1] = derivable from literature; cited from earlier work
[2] = tested on: porcine pancreatic lipase, PPL (crude extract); experiment: OPTS assay: enzymatic hydrolysis of OPTS by PPL; assay type: biochemical
Experimental: An aqueous solution of commercially purchased porcine pancreatic lipase, PPL, was prepared (Sigma-Aldrich, US; 100-500 Units/mg protein). According to the manufacturer, this powder mainly contains triacylglycerol lipase, but since it is a homogenised powder from freeze-dried porcine pancreas (crude extract), it is likely to further contain other carboxylesterases and lipases. These enzymes hydrolyse fatty acid esters and this extract was therefore selected for functional tests.
To record the reaction kinetics of the substrate OPTS with PPL, an aqueous 10 mg/mL PPL solution was prepared by adding 10 mg PPL to 1 mL H2O. The suspension was vortexed for 2 min and centrifuged at 14,000×g for 5 min before the supernatant was removed.
A reaction mixture of 75 μL AMT buffer (pH=7), 165 μL H2O and 30 μL of an aqueous 10 mg*mL-1 PPL solution was started with the addition of 30 μL of a 250 μM OPTS solution. The increase in fluorescence was recorded over 30 min with 15 s measuring intervals (n=2). As control (blank) served a preparation without PPL (only with H2O). […] The calculated reaction rate is 2.89±0.08*10-5 units (μmol*min-1). […]
Further inhibition of the non-ionic detergent polysorbate 20 (Tween 20) was tested. […] No inhibition was observed until 50 μg/ml at pH 7.0, but higher concentrations reduced the fluorescence signal (FIG. 5B). […]

[3] = tested on: purified commercially available lipase (lysosomal lipase); experiment: 4-MUD assay on a purified commercially available lipase; assay type: biochemical; details: 10 μM orlistat, 1 mM PMSF, 10 mM EDTA; pH 5.5
Experimental: The target concentration of OPTS was 25 μM and the target concentration of 4-MUD was 30 μM. For preparing a master mix, 4×AMT buffer was mixed with the appropriate volume of H2O in a Falcon tube. The dialysed antibody (Ab) preparation samples (drug substance) or control solutions (75 μl) were transferred to 96 well plates. Optional inhibitors (10 μM orlistat, 1 mM PMSF and 10 mM EDTA) were added to the master mix comprising 4×AMT buffer and water and substrate (3 μl/sample 3 mM 4-MUD in DMSO or […] 250 μM OPTS in H2O, aliquoted and frozen). The 4-MUD substrate was stored at a concentrated stock solution comprising 3 mM 4-methylumbelliferyl decanoate (4-MUD; FM25973, Carbosynth) in DMSO resulting in a 100× stock solution for use comprising […] in DMSO. The 250 μM OPTS stock solution was prepared in H2O, aliquoted and frozen until use. […] The reaction was then started by adding the master mix (reaction solution) to the protein solution or control solution, respectively. The measurement was started immediately. The measuring time was 30 min and the measuring intervals 15 s. Stock solutions of the inhibitors were used as follows: 300 μM orlistat (Sigma-Aldrich, USA) in DMSO, 100 mM PMSF (Roth, Germany) in isopropanol and 500 mM EDTA (Sigma-Aldrich, USA) in H2O.
(§1) To generate pH profiles of the protein solutions, kinetic measurements were carried out as described above at the indicated pH value. The added AMT buffer was adjusted to the pH indicated in a range of pH 4-8 (0.5 steps) and the kinetics were recorded for each pH value.
Further, a purified commercially available lipase with unknown substrate specificity was analysed using the 4-MUD and OPTS assay. First, hydrolysis of both soluble (OPTS) and hydrophobic (4-MUD) carboxyl esters, as well as the influence of orlistat, PMSF and EDTA on the hydrolytic activity of the lipase were investigated.
Furthermore, the lipase was tested for its pH dependence in the OPTS and 4-MUD substrate assays. For this purpose, the hydrolytic activity was examined at pH=4-8.

[4] = tested on: contaminating host cell proteins with hydrolytic (lipase) activity in antibody solutions; experiment: 4-MUD assay on antibody preparations (drug substance samples); assay type: biochemical, CHO K1 or DG44 cells; details: all 9 antibody samples; for effect of inhibitor on hydrolytic activity in the 9 antibody samples, 4-MUD assay: orlistat 10 μM, PMSF 1 mM, EDTA 10 mM
From the text: In order to be able to determine the enzymatic activity, a substrate, 1-octanoyloxy-pyrene-3,6,8-trisulfonic acid trisodium salt (OPTS), was chosen. Its hydrolytic product, 1-hydroxypyrene-3,6,8-trisulfonic acid trisodium salt (HPTS), can be detected by fluorescence spectroscopy. The change in the fluorescence signal over time is directly related to the change in the concentration of free fluorophore. The conversion was made possible by setting up a calibration curve with a subsequent linear fit (R^2≥0.99). The experiments of the kinetics measurements with the OPTS/4-MUD substrates assay were performed in duplicates. The reaction mixture without the protein of interest, which served as the respective control, was subtracted from the protein-containing batch. The buffer used for OPTS measurements (hydrophilic substrate) contained 0.3 M HOAc, 0.3 M MES, 0.6 M TRIS and 0.6 M NaCl (4×AMT buffer; acetate, MES, TRIS). For 4-MUD substrate measurements (lipophilic substrate) 0.04 M CHAPS was added in addition. The buffer (AMT) was prepared in four-fold concentration (4×AMT) and was added at 25% (v/v) to the reaction mix. All measurements were carried out in multiwell plates with a preparation volume of 300 μL (75 μL 4×AMT buffer, 30 μL substrate, 75 μL enzyme-containing solution, x μL additive, 300 μL ad. H2O) Unless otherwise stated, all fluorescence spectroscopic measurements were performed using 96-well, clear-bottom, non-binding plates (Greiner, Austria) on a SpectraMax M3 PlateReader (Molecular Device, USA) and recorded using SoftMax Pro 7.0.3 software (Molecular Device, USA). The OPTS assay measurements were typically taken at 25° C., λex=403 nm and λem=512 nm and the 4-MUD assay measurements were taken at 25° C., λex=330 nm and λem=450 nm. For evaluation, the detected fluorescence signal for a reaction mix without protein of interest (control) was subtracted from the reaction mix with protein of interest (e.g. DS). Hydrolysis of the substrate has been measured by detecting the fluorescence intensity of the released chromophore (4-MU or HPTS) immediately following mixing in real-time for a few minutes up to 5 hours depending on fluorescence intensity. The changes in the fluorescence signal over time were subsequently converted to hydrolytic activity using previously established calibration curves with a linear fit (R^2≥0.99).
The target concentration of OPTS was 25 μM and the target concentration of 4-MUD was 30 μM. […]
as §1

[5] = tested on: contaminating host cell proteins with hydrolase (carboxylesterase) activity in antibody solutions; experiment: OPTS assay on antibody preparations (drug substance samples); assay type: biochemical, CHO K1 or DG44 cells; details: orlistat 10 μM, PMSF 1 mM, EDTA 10 mM; all 9 antibody samples
From the text: In order to be able to determine the enzymatic activity, a substrate, 1-octanoyloxy-pyrene-3,6,8-trisulfonic acid trisodium salt (OPTS), was chosen. Its hydrolytic product, 1-hydroxypyrene-3,6,8-trisulfonic acid trisodium salt (HPTS), can be detected by fluorescence spectroscopy. The change in the fluorescence signal over time is directly related to the change in the concentration of free fluorophore. The conversion was made possible by setting up a calibration curve with a subsequent linear fit (R^2≥0.99). The experiments of the kinetics measurements with the OPTS/4-MUD substrates assay were performed in duplicates. The reaction mixture without the protein of interest, which served as the respective control, was subtracted from the protein-containing batch. The buffer used for OPTS measurements (hydrophilic substrate) contained 0.3 M HOAc, 0.3 M MES, 0.6 M TRIS and 0.6 M NaCl (4×AMT buffer; acetate, MES, TRIS). For 4-MUD substrate measurements (lipophilic substrate) 0.04 M CHAPS was added in addition. […] All measurements were carried out in multiwell plates with a preparation volume of 300 μL (75 μL 4×AMT buffer, 30 μL substrate, 75 μL enzyme-containing solution, x μL additive, 300 μL ad. H2O) Unless otherwise stated, all fluorescence spectroscopic measurements were performed using 96-well, clear-bottom, non-binding plates (Greiner, Austria) on a SpectraMax M3 PlateReader (Molecular Device, USA) and recorded using SoftMax Pro 7.0.3 software (Molecular Device, USA). […] For evaluation, the detected fluorescence signal for a reaction mix without protein of interest (control) was subtracted from the reaction mix with protein of interest (e.g. DS). Hydrolysis of the substrate has been measured by detecting the fluorescence intensity of the released chromophore (4-MU or HPTS) immediately following mixing in real-time for a few minutes up to 5 hours depending on fluorescence intensity. The changes in the fluorescence signal over time were subsequently converted to hydrolytic activity using previously established calibration curves with a linear fit (R^2≥0.99). […]

| influence of inhibitors on hydrolytic activity of the lipase, 4-MUD substrate [3] | Structure (SMILES) | CMC [1] | effect of inhibitor on hydrolytic activity in the 9 antibody samples, 4-MUD assay [4] | effect of inhibitor on hydrolytic activity in the 9 antibody samples, OPTS assay [5] | further results |
| --- | --- | --- | --- | --- | --- |
|  | C[C@H](CCC(=O)NCCC[N+](C)(C)CCCS(=O)(=O)[O-])[C@H]1CC[C@H]2[C@@H]3[C@H](O)C[C@@H]4C[C@H](O)CC[C@]4(C)[C@H]3C[C@H](O)[C@]12C [CHAPS, 3-[(3-cholamidopropyl)dimethylammonio]-1-propanesulfonate] | about 6 mM |  |  | activity in the presence of 10 mM CHAPS ([2]; 1 mg*mL-1 PPL, 25 μM OPTS, AMT pH 7, 10 mM CHAPS): 6.16*10^−7 units |
|  | C[C@H](CCC(=O)NCCC[N+](C)(C)CC(O)CS(=O)(=O)[O-])[C@H]1CC[C@H]2[C@@H]3[C@H](O)C[C@@H]4C[C@H](O)CC[C@]4(C)[C@H]3C[C@H](O)[C@]12C (stereo partly drawn) [CHAPSO, 3-([3-Cholamidopropyl)dimethylammonio]-2-hydroxy-1-propanesulfonate] | about 8 mM |  |  |  |
| only minor effects | O=C(O)CN(CCN(CC(=O)O)CC(=O)O)CC(=O)O [EDTA] |  | hardly any inhibition; also recorded: no inhibition | Neither orlistat, nor PMSF or EDTA significantly reduced; also recorded: no inhibition |  |
|  | CCCCCCCCCCCC(=O)OCCOCCOCCOCCOCCOCCOCCOCCOCCOCCOCCOCCOCCOCCOCCOCCOCCOCCOCCOCCOCC(OCCOCCOCCOCCOCCOCCOCCOCCOCCOCCOCCOCCOCCOCCOCCOCCOCCOCCOCCOCCO)C1OCC(OCCOCCOCCOCCOCCOCCOCCOCCOCCOCCOCCOCCOCCOCCOCCOCCOCCOCCOCCOCCO)C1OCCOCCOCCOCCOCCOCCOCCOCCOCCOCCOCCOCCOCCOCCOCCOCCOCCOCCOCCOCCO (stereo not drawn) [Polysorbate 20, polyoxyethylene (20) sorbitan monolaurate] |  |  |  | concentration until which no inhibition was observed ([2]; PPL, pH 7.0, target concentrations 200 μg/mL to 0.098 μg/mL tested): ≤ 50 µg/mL |
|  | CCCCCCCCCCCC[N+](C)(C)CCCS(=O)(=O)[O-] [Zwittergent 3-12, n-Dodecyl-N,N-dimethyl-3-ammonio-1-propanesulfonate] | 2 to 4 mM |  |  |  |
| almost completely inhibited | CCCCCCCCCCC[C@@H](C[C@@H]1OC(=O)[C@H]1CCCCCC)OC(=O)[C@H](CC(C)C)NC=O [orlistat] |  | pronounced inhibition; also recorded: strong inhibition | Neither orlistat, nor PMSF or EDTA significantly reduced | residual activities with orlistat ([4]; 10 μM orlistat, % of hydrolysis activity without inhibitor): 18-21% |

| Structure (SMILES) | influence of inhibitors on hydrolytic activity of the lipase, 4-MUD substrate [3] | CMC [1] | effect of inhibitor on hydrolytic activity in the 9 antibody samples, 4-MUD assay [4] | effect of inhibitor on hydrolytic activity in the 9 antibody samples, OPTS assay [5] | further results |
| --- | --- | --- | --- | --- | --- |
| O=S(=O)(F)Cc1ccccc1 [PMSF] | only minor effects |  | sight inhibition | Neither orlistat, nor PMSF or EDTA significantly reduced |  |
